Assay results from patent US6214844A, “Substituted imidazole compounds” (SmithKline Beecham Corporation, priority 1999, dated 2001).

Legend:
human PGHS-2 = experiment: Prostoglandin endoperoxide synthase-2 (PGHS-2) assay: PGHS-2 protein expression in LPS stimulated human monocytes; type: cell-based
Protocol: Prostoglandin endoperoxide synthase-2 (PGHS-2) assay:
The following assay describes a method for determining the inhibitory effects of compounds of Formula (I) on human PGHS-2 protein expression in LPS stimulated human monocytes.
Method: Human peripheal blood monocytes were isolated from buffy coats by centrifugation through Ficoll and Percoll gradients. Cells were seeded at 2×10^6 /well in 24 well plates and allowed to adhere for 1 hour in RPMI supplemented with 1% human AB serum, 20 mM L-glutamine, Penicillin-Streptomycin and 10 mM HEPES. Compounds were added at various concentrations and incubated at 37° C. for 10 minutes. LPS was added at 50 ng/well (to induce enzyme expression) and incubated overnight at 37° C. The supernatant was removed and cells washed once in cold PBS. The cells were lysed in 100 μl of cold lysis buffer(50 mM Tris/HCl pH 7.5, 150 mM NaCl, 1% NP40, 0.5% sodium deoxycholate, 0.1% SDS, 300 ug/ml DNAse, 0.1% TRITON X-100, 1 mM PMSF, 1 mM leupeptin, 1 mM pepstatin). The lysate was centrifuged (10,000×g for 10 min. at 4° C.) to remove debris and the soluble fraction was subjected to SDS PAGE. analysis (12% gel). Protein separated on the gel were transferred onto nitrocellulose membrane by electrophoretic means for 2 hours at 60 volts. The membrane was pretreated for one hour in PBS/0.1% Tween 20 with 5% non-fat dry milk. After washing 3 times in PBS/Tween buffer, the membrane was incubated with a 1:2000 dilution of a monospecific antiserum to PGHS-2 or a 1:1000 dilution of an antiserum to PGHs-1 in PBS/Tween with 1% BSA for one hour with continuous shaking. The membrane was washed 3× in PBS/Tween and then incubated with a 1:3000 dilution of horseradish peroxidase conjugated donkey antiserum to rabbit Ig (Amershamn) in PBS/Tween with 1% BSA for one hour with continuous shaking. The membrane was then washed 3× in PBS/Tween and the ECL immunodetection system (Amersham) was used to detect the level of expression of prostaglandin endoperoxide synthases-2.

IL-1 = experiment: Interleukin-1 (IL-1) production by LPS-stimulated human peripheral blood monocytes; type: cell-based; conditions: LPS 50 ng/ml
Protocol: Human peripheral blood monocytes are isolated and purified from either fresh blood preparations from volunteer donors, or from blood bank buffy coats, according to the procedure of Colotta et al, J Immunol, 132, 936 (1984). These monocytes (1×10^6) are plated in 24-well plates at a concentration of 1-2 million/ml per well. The cells are allowed to adhere for 2 hours, after which time non-adherent cells are removed by gentle washing. Test compounds are then added to the cells for 1 h before the addition of lipopolysaccharide (50 ng/ml), and the cultures are incubated at 37° C. for an additional 24 h. At the end of this period, culture supernatants are removed and clarified of cells and all debris. Culture supernatants are then immediately assayed for IL-1 biological activity, either by the method of Simon et al., J. Immunol. Methods, 84, 85, (1985) (based on ability of IL-1 to stimulate a Interleukin 2 producing cell line (EL-4) to secrete IL-2, in concert with A23187 ionophore) or the method of Lee et al., J. Immuno Therapy, 6 (1), 1-12 (1990) (ELISA assay).

CSBP2 = biological target: T1, CSBP2 (Homo sapiens, UniProt Q16539); experiment: CSBP kinase assay (32P transfer to EGFR-derived peptide T669); type: biochemical
T1 construct: made in house
T1 sequence (Q16539 whole entry): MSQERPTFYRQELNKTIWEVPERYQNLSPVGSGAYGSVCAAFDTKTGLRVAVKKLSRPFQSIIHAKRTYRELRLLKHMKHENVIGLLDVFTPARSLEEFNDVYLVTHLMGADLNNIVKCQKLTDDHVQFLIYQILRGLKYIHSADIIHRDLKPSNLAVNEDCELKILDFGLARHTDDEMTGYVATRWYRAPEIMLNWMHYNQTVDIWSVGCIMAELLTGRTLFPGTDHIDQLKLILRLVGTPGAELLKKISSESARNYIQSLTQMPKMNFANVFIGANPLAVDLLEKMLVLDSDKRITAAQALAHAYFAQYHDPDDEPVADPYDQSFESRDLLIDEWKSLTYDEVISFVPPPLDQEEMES
Protocol: Compounds (5 ul from [6X] stock^(2)) are pre-incubated with the enzyme and peptide for 20 min on ice prior to starting the reactions with 32P/MgATP. Reactions are incubated at 30° C. for 10 min and stopped by adding 10 ul of 0.3 M phosphoric acid. 32P-labeled peptide is separated on phosphocellulose (Wattman, p81) filters by spotting 30 ul reaction mixture. Filters are washed 3 times with […] phosphoric acid followed by 2 washes with H2 O, and counted for 32P.
^(2) Compounds are usually dissolved in DMSO and are diluted in 25 mM Hepes buffer to get final concentration of DMSO of 0.17%.

[1] = biological target: T2, cytokine specific binding protein (CSBP) (Homo sapiens, UniProt Q16539); experiment: Cytokine Specific Binding Protein Assay (radiocompetitive binding, cytosolic fraction of THP.1 cells); conditions: THP.1 cytosolic fraction, radiolabeled compound
T2 construct: soluble cystosolic fraction from THP.1 cells; endogenous in cells; host or cells: THP.1 cells, soluble cytosolic fraction
T2 sequence (Q16539 whole entry): as above

[2] = active, rank order potency similar to that for inhibiting cytokine production

SMILES: C[S+]([O-])c1ccc(-c2nc3n(c2-c2ccncc2)CCC3)cc1 (stereo not drawn) [2-(4-Methylsulfinylphenyl)-3-(4-pyridyl)-6,7-dihydro-(5H)-pyrrolo[1,2-a]imidazole]
- inhibition of LPS induced PGHS-2 protein expression (human PGHS-2; inactive, up to 10 μM): inactive

SMILES: C[S+]([O-])c1ccc(-c2nc(-c3ccc(F)cc3)c(-c3ccncc3)[nH]2)cc1 (stereo not drawn) [4-(4-Fluorophenyl)-2-(4-methylsulfinylphenyl)-5-(4-pyridyl)imidazole]
- inhibition of LPS induced PGHS-2 protein expression (human PGHS-2; [2]): active

SMILES: Fc1ccc(-c2nc3n(c2-c2ccncc2)CCS3)cc1 [6-(4-Fluorophenyl)-2,3-dihydro-5-(4-pyridinyl)imidazo[2,1-b]thiazole]
- inhibition of LPS induced PGHS-2 protein expression (human PGHS-2; [2]): active

SMILES: C[C@@H]1C[C@H]2[C@@H]3CCC4=CC(=O)C=C[C@]4(C)[C@@]3(F)[C@@H](O)C[C@]2(C)[C@@]1(O)C(=O)CO [Dexamethasone]
- inhibition of LPS induced PGHS-2 protein expression (human PGHS-2; [2]): active

SMILES: COc1nccc(-c2c(-c3ccc(F)cc3)ncn2C2CCNCC2)n1 [Example 1, 5-(2-Methoxy-4-pyrimidinyl)-4-(4-fluorophenyl)-1-(4-piperidinyl)imidazole]
- inhibition of IL-1 production (IL-1): positive inhibition

SMILES: CC(C)Oc1cc(-c2c(-c3ccc(F)cc3)ncn2C2CCNCC2)ccn1 [Example 5, 5-(2-iso-Propoxy4-pyridinyl)-4-(4-fluorophenyl)-1-(4-piperidinyl)imidazole]
- IC50 (CSBP2): > 50 µM

SMILES: CSc1nccc(-c2c(-c3ccc(F)cc3)ncn2C2CCNCC2)n1 [Example 6, 5-(2-Methylthio-4-pyrimidinyl)4-(4-fluorophenyl)-1-(4-piperidinyl)imidazole]
- IC50 [1]: < 50 µM

SMILES: CCOC(=O)N1CCC(n2cnc(-c3ccc(SC)cc3)c2-c2ccnc(SC)n2)CC1 [Example 9, 1-(1-Ethylcarboxylpiperidin-4-yl)-3-(4-thiomethylphenyl)-5-[2-(thiomethyl)pyrimidin-4-yl]-imidazole]
- IC50 (CSBP2): > 50 µM

SMILES: CCOC(=O)N1CCC(n2cnc(-c3ccc([S+](C)[O-])cc3)c2-c2ccnc([S+](C)[O-])n2)CC1 (stereo not drawn) [Example 10]
- IC50 (CSBP2): > 50 µM

SMILES: CC(Cc1ccc(O)c(O)c1)C(C)Cc1ccc(O)c(O)c1 (stereo not drawn) [NDGA]
- inhibition of LPS induced PGHS-2 protein expression (human PGHS-2; inactive, up to 10 μM): inactive

SMILES: O=C1CCN(c2ccccc2)N1 [phenidone]
- inhibition of LPS induced PGHS-2 protein expression (human PGHS-2; inactive, up to 10 μM): inactive

SMILES: COc1ccc(C2CNC(=O)C2)cc1OC1CCCC1 (stereo not drawn) [rolipramr]
- inhibition of LPS induced PGHS-2 protein expression (human PGHS-2; inactive, up to 10 μM): inactive
